Experimental data from BindingDB's records for doi:10.1016/j.ejmech.2016.03.038 (Glaxosmithkline, 2016).

How the values were obtained:
[1] = Inhibition of pseudotype HIV1 integrase strand transfer activity assessed as reduction in viral replication in HIV1 infected human CIP4 cells after 2 days by luciferase reporter gene assay
[2] = Inhibition of pseudotype HIV1 integrase strand transfer activity assessed as reduction in viral replication in HIV1 infected human CIP4 cells after 2 days in presence of 40% human serum albumin by luciferase reporter gene assay

Structure (SMILES)	IC50 [1] [µM]	IC50 [2] [µM]
O=C(NCc1ccc(F)cc1)c1cn2c(c(O)c1=O)C(=O)N1CCCO[C@H]1C2	0.002	–
O=C1c2c(cc3cc(Cc4cccc(Cl)c4F)cnc3c2O)CN2CCCN12	0.016	0.136
N#Cc1c2c(c(O)c3ncc(Cc4cccc(Cl)c4F)cc13)C(=O)N1CCCN1C2	0.0022	0.415
NC(=O)c1c2c(c(O)c3ncc(Cc4cccc(Cl)c4F)cc13)C(=O)N1CCC[C@@H]1C2	0.008	0.03
NC(=O)c1c2c(c(O)c3ncc(Cc4cccc(Cl)c4F)cc13)C(=O)N1CCCC[C@H]21	0.0007	0.001
NC(=O)c1c2c(c(O)c3ncc(Cc4cccc(Cl)c4F)cc13)C(=O)N1CCCC[C@@H]21	0.0006	0.002
Cn1c(=O)c(C(=O)NCCO)c(O)c2ncc(Cc3ccc(F)cc3)cc21 [GSK364735]	0.003	–

Continued, values first:

IC50 [1] [µM]	IC50 [2] [µM]	Structure (SMILES)
0.007	4.54	N#Cc1c2c(c(O)c3ncc(Cc4cccc(Cl)c4F)cc13)C(=O)N1CCC[C@@H]1C2
0.014	0.066	N#Cc1c2c(c(O)c3ncc(Cc4cccc(Cl)c4F)cc13)C(=O)N1CCC[C@H]1C2
0.015	0.457	N#Cc1c2c(c(O)c3ncc(Cc4cccc(Cl)c4F)cc13)C(=O)N1CCCC[C@H]21
0.018	1.28	N#Cc1c2c(c(O)c3ncc(Cc4cccc(Cl)c4F)cc13)C(=O)N1CCCC[C@@H]21
0.005	0.294	N#Cc1c2c(c(O)c3ncc(Cc4cccc(Cl)c4F)cc13)C(=O)N1CCC[C@H]21
0.01	3.32	N#Cc1c2c(c(O)c3ncc(Cc4cccc(Cl)c4F)cc13)C(=O)N1CCC[C@@H]21
0.003	0.015	NC(=O)c1c2c(c(O)c3ncc(Cc4cccc(Cl)c4F)cc13)C(=O)N1CCC[C@H]1C2
